Results from the supplement of paper PMC10307832.

Assays:
Assay in all cases: relative viability (nuclei count vs DMSO), 5 days (fraction); higher = more cells survive
NCI-H2126 = tested on: NCI-H2126
Outline: (§1)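 The day after seeding in 1536-well plates, lung cancer cell lines were treated by pin tool with a single drug, or with a fixed anchor-drug dose together with five library-drug doses (not always all listed) in √10 steps. After 5 days, a combined fix-and-stain solution (final 0.05% Triton X-100, 1% formaldehyde, 1 ug/ml Hoechst) was added. Nuclei counted on 4× images gave relative viability as treated counts over vehicle counts, reported as the median of duplicate plates.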

NCI-H2228 = tested on: NCI-H2228
Outline: as §1

HOP-62 = tested on: HOP-62
Outline: as §1

LOU-NH91 = tested on: LOU-NH91
Outline: as §1

NCI-H1734 = tested on: NCI-H1734
Outline: as §1

RERF-LC-KJ = tested on: RERF-LC-KJ
Outline: as §1

NCI-H2347 = tested on: NCI-H2347
Outline: as §1

LXF-289 = tested on: LXF-289
Outline: as §1

NCI-H1755 = tested on: NCI-H1755
Outline: as §1

NCI-H358 = tested on: NCI-H358
Outline: as §1

LC-2-ad = tested on: LC-2-ad
Outline: as §1

NCI-H2342 = tested on: NCI-H2342
Outline: as §1

NCI-H647 = tested on: NCI-H647
Outline: as §1

NCI-H1915 = tested on: NCI-H1915
Outline: as §1

NCI-H460 = tested on: NCI-H460
Outline: as §1

SW 1573 = tested on: SW 1573
Outline: as §1

NCI-H1975 = tested on: NCI-H1975
Outline: as §1

A-427 = tested on: A-427
Outline: as §1

SK-LU-1 = tested on: SK-LU-1
Outline: as §1

PC-3 [JPC-3] = tested on: PC-3 [JPC-3]
Outline: as §1

HCC-78 = tested on: HCC-78
Outline: as §1

HCC-15 = tested on: HCC-15
Outline: as §1

SMILES: O=C(O)c1ccc(-c2c[nH]c3ncc(-c4ccccc4)cc23)cc1C1CCCC1 + Cc1cc(Nc2cc(N3CCN(C)CC3)nc(Sc3ccc(NC(=O)C4CC4)cc3)n2)n[nH]1 [Tozasertib] (partner 0.1 µM)
- relative viability (NCI-H2126; first compound 0.04 µM): 0.84
- relative viability (NCI-H2126; first compound 0.1265 µM): 0.833
- relative viability (NCI-H2126; first compound 0.4 µM): 0.868
- relative viability (NCI-H2126; first compound 1.265 µM): 0.644
- relative viability (NCI-H2228; first compound 0.04 µM): 0.244
- relative viability (NCI-H2228; first compound 0.1265 µM): 0.272
- relative viability (NCI-H2228; first compound 0.4 µM): 0.218
- relative viability (NCI-H2228; first compound 1.265 µM): 0.186
- relative viability (HOP-62; first compound 0.04 µM): 0.393
- relative viability (HOP-62; first compound 0.1265 µM): 0.332
- relative viability (HOP-62; first compound 0.4 µM): 0.304
- relative viability (HOP-62; first compound 1.265 µM): 0.308
- relative viability (LOU-NH91; first compound 0.04 µM): 0.584
- relative viability (LOU-NH91; first compound 0.1265 µM): 0.688
- relative viability (LOU-NH91; first compound 0.4 µM): 0.616
- relative viability (LOU-NH91; first compound 1.265 µM): 0.526
- relative viability (NCI-H1734; first compound 0.04 µM): 0.284
- relative viability (NCI-H1734; first compound 0.1265 µM): 0.236
- relative viability (NCI-H1734; first compound 0.4 µM): 0.247
- relative viability (NCI-H1734; first compound 1.265 µM): 0.258
- relative viability (RERF-LC-KJ; first compound 0.04 µM): 0.531
- relative viability (RERF-LC-KJ; first compound 0.1265 µM): 0.422
- relative viability (RERF-LC-KJ; first compound 0.4 µM): 0.407
- relative viability (RERF-LC-KJ; first compound 1.265 µM): 0.275
- relative viability (NCI-H2347; first compound 0.04 µM): 0.606
- relative viability (NCI-H2347; first compound 0.1265 µM): 0.643
- relative viability (NCI-H2347; first compound 0.4 µM): 0.522
- relative viability (NCI-H2347; first compound 1.265 µM): 0.5
- relative viability (LXF-289; first compound 0.04 µM): 0.229
- relative viability (LXF-289; first compound 0.1265 µM): 0.187
- relative viability (LXF-289; first compound 0.4 µM): 0.126
- relative viability (LXF-289; first compound 1.265 µM): 0.143
- relative viability (NCI-H1755; first compound 0.04 µM): 0.609
- relative viability (NCI-H1755; first compound 0.1265 µM): 0.628
- relative viability (NCI-H1755; first compound 0.4 µM): 0.514
- relative viability (NCI-H1755; first compound 1.265 µM): 0.509
- relative viability (NCI-H358; first compound 0.04 µM): 0.0826
- relative viability (NCI-H358; first compound 0.1265 µM): 0.107
- relative viability (NCI-H358; first compound 0.4 µM): 0.0884
- relative viability (NCI-H358; first compound 1.265 µM): 0.0978
- relative viability (LC-2-ad; first compound 0.04 µM): 0.482
- relative viability (LC-2-ad; first compound 0.1265 µM): 0.407
- relative viability (LC-2-ad; first compound 0.4 µM): 0.399
- relative viability (LC-2-ad; first compound 1.265 µM): 0.402
- relative viability (NCI-H2342; first compound 0.04 µM): 0.588
- relative viability (NCI-H2342; first compound 0.1265 µM): 0.422
- relative viability (NCI-H2342; first compound 0.4 µM): 0.445
- relative viability (NCI-H2342; first compound 1.265 µM): 0.521
- relative viability (NCI-H647; first compound 0.04 µM): 0.223
- relative viability (NCI-H647; first compound 0.1265 µM): 0.381
- relative viability (NCI-H647; first compound 0.4 µM): 0.337
- relative viability (NCI-H647; first compound 1.265 µM): 0.22
- relative viability (NCI-H1915; first compound 0.04 µM): 0.445
- relative viability (NCI-H1915; first compound 0.1265 µM): 0.427
- relative viability (NCI-H1915; first compound 0.4 µM): 0.364
- relative viability (NCI-H1915; first compound 1.265 µM): 0.275
- relative viability (NCI-H460; first compound 0.04 µM): 0.413
- relative viability (NCI-H460; first compound 0.1265 µM): 0.384
- relative viability (NCI-H460; first compound 0.4 µM): 0.491
- relative viability (NCI-H460; first compound 1.265 µM): 0.306
- relative viability (SW 1573; first compound 0.04 µM): 0.183
- relative viability (SW 1573; first compound 0.1265 µM): 0.194
- relative viability (SW 1573; first compound 0.4 µM): 0.211
- relative viability (SW 1573; first compound 1.265 µM): 0.148
- relative viability (NCI-H1975; first compound 0.04 µM): 0.681
- relative viability (NCI-H1975; first compound 0.1265 µM): 0.875
- relative viability (NCI-H1975; first compound 0.4 µM): 0.794
- relative viability (NCI-H1975; first compound 1.265 µM): 0.729
- relative viability (A-427; first compound 0.04 µM): 0.23
- relative viability (A-427; first compound 0.1265 µM): 0.255
- relative viability (A-427; first compound 0.4 µM): 0.182
- relative viability (A-427; first compound 1.265 µM): 0.182
- relative viability (SK-LU-1; first compound 0.04 µM): 0.296
- relative viability (SK-LU-1; first compound 0.1265 µM): 0.347
- relative viability (SK-LU-1; first compound 0.4 µM): 0.298
- relative viability (SK-LU-1; first compound 1.265 µM): 0.292
- relative viability (PC-3 [JPC-3]; first compound 0.04 µM): 0.926
- relative viability (PC-3 [JPC-3]; first compound 0.1265 µM): 0.881
- relative viability (PC-3 [JPC-3]; first compound 0.4 µM): 0.766
- relative viability (PC-3 [JPC-3]; first compound 1.265 µM): 0.65
- relative viability (HCC-78; first compound 0.1265 µM): 0.468
- relative viability (HCC-78; first compound 0.4 µM): 0.405
- relative viability (HCC-78; first compound 1.265 µM): 0.345
- relative viability (HCC-15; first compound 0.04 µM): 0.403
- relative viability (HCC-15; first compound 0.1265 µM): 0.502
- relative viability (HCC-15; first compound 0.4 µM): 0.307
- relative viability (HCC-15; first compound 1.265 µM): 0.151
